Patent US8680120B2, “Indole derivative or pharmaceutically acceptable salt thereof” (Kissei Pharmaceutical Co., Ltd., priority 2009, dated 2014)
pIC50: −log10 of the molar value.

target: rat EP1 receptor (Rattus norvegicus (Rat), UniProt P70597); test: Test for confirmation of EP1 receptor antagonism: inhibition of the prostaglandin E2-induced increase in intracellular calcium concentration in rat EP1 receptor-expressing COS-1 cells; assay type: cell-based; settings: Method A: Fluo-4 NW Calcium Assay Kit, FlexStation; prostaglandin E2 10 nM; rat EP1 receptor-expressing COS-1 cells
Sequence (P70597 whole entry): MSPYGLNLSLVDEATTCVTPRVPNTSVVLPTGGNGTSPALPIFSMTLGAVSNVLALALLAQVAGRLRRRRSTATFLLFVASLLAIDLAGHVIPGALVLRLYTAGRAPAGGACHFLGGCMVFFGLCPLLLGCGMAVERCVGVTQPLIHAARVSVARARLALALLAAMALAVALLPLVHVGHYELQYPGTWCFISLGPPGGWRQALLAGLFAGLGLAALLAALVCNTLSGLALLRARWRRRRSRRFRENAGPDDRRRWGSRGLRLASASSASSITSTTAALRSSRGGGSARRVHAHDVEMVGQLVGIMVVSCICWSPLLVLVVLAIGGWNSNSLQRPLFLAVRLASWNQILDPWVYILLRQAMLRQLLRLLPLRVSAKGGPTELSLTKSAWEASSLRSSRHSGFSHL
Description: (1) Preparation of Rat EP1 Expression Vector
Using Rat Kidney BD Marathon-Ready cDNA (Nippon Becton Dickinson Company, Ltd.) as a template, a forward primer shown in SEQ ID NO. 1, and a reverse primer shown in SEQ ID NO. 2, a first run of PCR was carried out using KOD-Plus-Ver 2.0 (Toyobo Co., Ltd.). Further, using this amplification product as a template, a forward primer shown in SEQ ID NO. 3, and a reverse primer shown in SEQ ID NO. 4, a second run of PCR was carried out in the same manner. The amplification product obtained by the second run of PCR was incorporated into a vector (pcDNA3.1 D/V5-His-TOPO (registered trademark), Invitrogen Japan K. K.). By a conventional method, the vector containing this amplification product was introduced to E. coli (One Shot TOP10 Competent Cells, Invitrogen Corporation) to transform. This transformed E. coli was cultured in an LB agar medium for one day. After the culture, colonies were selected and cultured in an LB liquid medium containing 50 μg/mL of ampicillin. After the culture, the vector was purified using a QIAprep Spin Miniprep Kit (Qiagen K. K.). The base sequence of the insertion site of this vector (SEQ ID NO. 5) was compared with the rat EP1 base sequence (Ptger1) registered as an accession number NM_013100 in well-known database (NCBI), and as a result, they all matched except for a single base. Further, the amino acid sequence translated by the base sequence completely matched the amino acid sequence of the rat EP1 receptor registered as an NCBI accession number NP_037232. Therefore, it was confirmed that the cloned gene sequence was a base sequence of the rat EP1 receptor and the obtained amino acid sequence was that of the rat EP1 receptor. The pcDNA3.1 D/V5-His-TOPO (registered trademark) to which the nucleic acid shown in SEQ ID NO. 5 had been inserted was taken as a rat EP1-expressing vector.
(2) Preparation of Rat EP1 Receptor-Expressing Cells
COS-1 cells (Dainippon Sumitomo Pharma Co., Ltd.) were cultured until it reached confluence in an incubator at 37° C. under a 5% CO2 gas condition, using a D-MEM liquid medium (high glucose and L-glutamine contained, Invitrogen Corporation) to which a penicillin-streptomycin solution (Invitrogen Corporation, final concentration: 100 U/mL as benzylpenicillin; 100 μg/mL as streptomycin) as an antibiotic, MEM nonessential amino acids (Invitrogen Corporation, final Concentration: 0.1 mM), and fetal calf serum (Sanko Junyaku Co., Ltd., final concentration: 10%) were added.
The cells that had reached confluence were stripped with 0.05% trypsin/0.53 mM EDTA 4Na (Invitrogen Japan K. K.) and resuspended in the liquid medium. The resuspended cells were diluted and cultured in the liquid medium at a spread ratio from 1:4 to 1:8.
The cells that had reached confluence were stripped with 0.05% trypsin/0.53 mM EDTA.4Na, and resuspended in a D-MEM liquid medium (high glucose and L-glutamine contained, Invitrogen Corporation) to which an MEM nonessential amino acid (final concentration: 0.1 mM) and fetal calf serum (final concentration: 10%) were added. In each well of a Poly D-lysine-coated 96-well microplate (BD BioCoat (registered trademark), Nippon Becton Dickinson Company, Ltd.), this resuspended cell suspension culture was prepared to be 5×10^4 cells/well in 100 μL of the liquid medium, and seeded thereon. After seeding, the cells were cultured in an incubator at 37° C. under a 5% CO2 gas condition. At a point when the cells for introduction of a rat EP1-expressing vector were adhered (about 2 hours after seeding), introduction of the rat EP1-expressing vector was carried out in the following order.
For introduction of the rat EP1-expressing vector, Lipofectamine 2000 (Invitrogen Japan K. K.) was used. […]

Row | Compound | pIC50
1 | COc1ccc2c(c1)cc(C(C)C)n2Cc1cccc(C(=O)O)c1 [Example 9-15, 3-(2-isopropyl-5-methoxyindol-1-ylmethyl)benzoic acid] | 7.66
2 | COc1ccc2c(c1)cc(-c1ccsc1)n2Cc1cccc(C(=O)O)n1 [Example 9-35, 6-(5-methoxy-2-thiophen-3-ylindol-1-ylmethyl)pyridine-2-carboxylic acid] | 7.64
3 | COc1cc2cc(-c3ccccc3)n(Cc3cccc(C(=O)O)c3)c2cc1F [Example 9-43, 3-(6-fluoro-5-methoxy-2-phenylindol-1-ylmethyl)benzoic acid] | 7.89
4 | COc1ccc2c(c1)cc(-c1ccccc1)n2Cc1cccc(C(=O)O)c1F [Example 9-44, 2-fluoro-3-(5-methoxy-2-phenylindol-1-ylmethyl)benzoic acid] | 7.72

Now from value to compound:

Row | pIC50 | Compound
5 | 7.96 | COc1ccc2c(c1)cc(-c1ccoc1)n2Cc1cccc(C(=O)O)c1 [Example 9-32, 3-(2-furan-3-yl-5-methoxyindol-1-ylmethyl)benzoic acid]
6 | < 5.00 | 3-(5-methyl-2-phenylindol-1-yl)carboxylic acid [Comparative Example 1, reference compound]
7 | 7.05 | Cc1ccc2c(c1)cc(-c1ccccc1)n2Cc1cccc(C(=O)O)c1 [Example 9-13, 3-(5-methyl-2-phenylindol-1-ylmethyl)benzoic acid]
8 | 7.68 | COc1ccc2c(c1)cc(-c1ccccc1)n2Cc1cccc(C(=O)O)c1 [Example 9-1, 3-(5-methoxy-2-phenylindol-1-ylmethyl)benzoic acid]
9 | 7.46 | COc1ccc2c(c1)cc(-c1ccsc1)n2Cc1cccc(C(=O)O)c1 [Example 9-25, 3-(5-methoxy-2-thiophen-3-ylindol-1-ylmethyl)benzoic acid]

same assay, conditions: Method B: Calcium kit II Fluo 4, FDSS 7000; prostaglandin E2 10 nM; rat EP1 receptor-expressing COS-1 cells

Row | Compound | pIC50
10 | COc1cc2cc(-c3cccnc3)n(Cc3cccc(C(=O)O)n3)c2cc1F [Example 25-33, 6-(6-fluoro-5-methoxy-2-pyridin-3-ylindol-1-ylmethyl)pyridine-2-carboxylic acid] | 7.24
11 | COc1cc2cc(-c3ccoc3)n(Cc3ccc(C(=O)O)o3)c2cc1Cl [Example 25-38, 5-(6-chloro-2-furan-3-yl-5-methoxyindol-1-ylmethyl)furan-2-carboxylic acid] | 7.66
12 | COc1cc2cc(-c3ccccc3)n(Cc3ccc(C(=O)O)o3)c2cc1Cl [Example 25-26, 5-[6 chloro-5-methoxy-2-phenylindol-1-ylmethyl]furan-2-carboxylic acid] | 7.77
13 | CCC(C)c1cc2cc(OC)c(Cl)cc2n1Cc1cccc(C(=O)O)n1 (centres unmarked) [Example 25-44, 6-[6-chloro-5-methoxy-2-(1-methylpropyl)indol-1-ylmethyl]pyridine-2-carboxylic acid] | 7.29
14 | COc1cc2cc(-c3cccc(F)c3)n(Cc3cccc(C(=O)O)n3)c2cc1Cl [Example 25-23, 6-[6-chloro-2-(3-fluorophenyl)-5-methoxyindol-1-ylmethyl]pyridine-2-carboxylic acid] | 7.49
15 | COc1cc2cc(-c3ccccc3)n(Cc3cccc(C(=O)O)n3)c2cc1Cl [Example 25-9, 6-(6-chloro-5-methoxy-2-phenylindol-1-ylmethyl)pyridine-2-carboxylic acid] | 7.17
16 | COc1cc2cc(-c3ccccc3)n(Cc3ccc(C(=O)O)o3)c2cc1C [Example 25-36, 5-[5-methoxy-6-methyl-2-phenylindol-1-ylmethyl]furan-2-carboxylic acid] | 7.46
17 | COc1cc2cc(-c3cccc(F)c3)n(Cc3cccc(C(=O)O)n3)c2cc1F [Example 25-29, 6-[6-fluoro-2-(3-fluorophenyl)-5-methoxyindol-1-ylmethyl]pyridine-2-carboxylic acid] | 7.59
18 | COc1ccc2c(c1)cc(-c1cccc(F)c1)n2Cc1ccc(C(=O)O)o1 [Example 25-11, 5-[2-(3-fluorophenyl)-5-methoxyindol-1-ylmethyl]furan-2-carboxylic acid] | 7.47
19 | COc1cc2cc(-c3ccccc3F)n(Cc3cccc(C(=O)O)n3)c2cc1F [Example 25-28, 6-[6-fluoro-2-(2-fluorophenyl)-5-methoxyindol-1-ylmethyl]pyridine-2-carboxylic acid] | 7.55
20 | COc1ccc2c(c1)cc(-c1ccccc1)n2Cc1csc(C(=O)O)n1 [Example 25-12] | 7.26
21 | COc1ccc2c(c1)cc(-c1cccnc1)n2Cc1cccc(C(=O)O)c1 [Example 25-13, 3-(5-methoxy-2-pyridin-3-ylindol-1-ylmethyl)benzoic acid] | 7.42
22 | COc1cc2cc(-c3ccsc3)n(Cc3cccc(C(=O)O)n3)c2cc1Cl [Example 25-34, 6-(6-chloro-5-methoxy-2-thiophen-3-ylindol-1-ylmethyl)pyridine-2-carboxylic acid] | 7.27
23 | COc1ccc2c(c1)cc(-c1ccc(F)cc1)n2Cc1cccc(C(=O)O)c1 [Example 25-19, 3-[2-(4-fluorophenyl)-5-methoxyindol-1-ylmethyl]benzoic acid] | 7.44

Other lines, results leading:

Row | pIC50 | Compound
24 | 7.43 | COc1cc2cc(-c3ccsc3)n(Cc3cccc(C(=O)O)n3)c2cc1C [Example 25-39, 6-(5-methoxy-6-methyl-2-thiophen-3-ylindol-1-ylmethyl)pyridine-2-carboxylic acid]
25 | 7.55 | COc1cc2cc(-c3cccnc3)n(Cc3cccc(C(=O)O)n3)c2cc1Cl [Example 25-42, 6-(6-chloro-5-methoxy-2-pyridin-3-ylindol-1-ylmethyl)pyridine-2-carboxylic acid]
26 | 7.57 | COc1cc2cc(-c3ccoc3)n(Cc3cccc(C(=O)O)n3)c2cc1Cl [Example 25-37, 6-(6-chloro-2-furan-3-yl-5-methoxyindol-1-ylmethyl)pyridine-2-carboxylic acid]
27 | 7.41 | COc1cc2cc(-c3ccccc3)n(Cc3cccc(C(=O)O)n3)c2cc1C [Example 25-16, 6-(5-methoxy-6-methyl-2-phenylindol-1-ylmethyl)pyridine-2-carboxylic acid]
28 | 7.60 | COc1ccc2c(c1)cc(-c1cc(F)ccc1F)n2Cc1cccc(C(=O)O)n1 [Example 25-41, 6-[2-(2,5-difluorophenyl)-5-methoxyindol-1-ylmethyl)pyridine-2-carboxylic acid]
29 | 7.48 | COc1cc2cc(-c3ccc(F)cc3)n(Cc3cccc(C(=O)O)n3)c2cc1F [Example 25-31, 6-[6-fluoro-2-(4-fluorophenyl)-5-methoxyindol-1-ylmethyl]pyridine-2-carboxylic acid]
30 | 7.49 | COc1ccc2c(c1)cc(-c1ccccc1F)n2Cc1cccc(C(=O)O)c1 [Example 25-17, 3-[2-(2-fluorophenyl)-5-methoxyindol-1-ylmethyl]benzoic acid]
31 | 7.77 | COc1ccc2c(c1)cc(-c1cccc(F)c1)n2Cc1cccc(C(=O)O)c1 [Example 25-18, 3-[2-(3-fluorophenyl)-5-methoxyindol-1-ylmethyl]benzoic acid]

same assay, conditions: as shown in Table 49

Row | EP1 receptor antagonism (in words) | Compound
32 | do not exhibit EP1 receptor antagonism | 3-(5-methyl-2-phenylindol-1-yl)carboxylic acid [Comparative Example 1, reference compound]
